Legend:
hFXR = molecular target: T1, hFXR (Homo sapiens, UniProt Q96RI1); test: Luciferase reporter assay, FXR antagonism in transfected HEK293T cells; type: cell-based; conditions: 100 µmol/L, in the presence of GW4064, HEK293T
T1 construct: expressed in transfected cells; host or cells: HEK293T
T1 sequence (Q96RI1 1-472 isoform Q96RI1-2): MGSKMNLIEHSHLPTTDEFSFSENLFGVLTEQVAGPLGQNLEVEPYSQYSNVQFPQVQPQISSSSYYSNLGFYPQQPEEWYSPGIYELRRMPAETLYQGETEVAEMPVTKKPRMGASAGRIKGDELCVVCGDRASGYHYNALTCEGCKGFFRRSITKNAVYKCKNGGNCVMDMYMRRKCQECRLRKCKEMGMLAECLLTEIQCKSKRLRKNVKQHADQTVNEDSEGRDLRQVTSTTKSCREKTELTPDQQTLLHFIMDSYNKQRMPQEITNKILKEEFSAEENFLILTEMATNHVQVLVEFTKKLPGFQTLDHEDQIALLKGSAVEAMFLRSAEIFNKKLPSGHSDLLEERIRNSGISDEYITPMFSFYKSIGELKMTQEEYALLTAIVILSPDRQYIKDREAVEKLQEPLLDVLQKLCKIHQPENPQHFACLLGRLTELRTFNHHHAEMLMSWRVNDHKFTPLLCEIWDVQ
Method: HEK293T cells were used for the luciferase report assays and were cultured in DMEM with 10% FBS. The cells were incubated in DMEM media with 1% FBS for 4–6 h and then exposed to the indicated concentrations of compounds for 24 h.
For the FXR antagonism experiment, HEK293T cells were seeded in 96-well plates and transfected with pCMV-Script-hFXR and pGL4.11-hSHP-luciferase at a density of 3 × 10^4 cells/well, before culturing overnight. The compounds at indicated concentrations were added to the cells and incubated at 37°C for 1 h, before stimulating with 1% DMSO (negative control) and 5 μmol/L GW4064 (positive control) for 24 h. For the FXR agonism experiment, HEK293T cells were seeded in 96-well plates and transfected with pCMV-Script-hFXR and pGL4.11-hSHP-luciferase at a density of 3 × 10^4 cells/well, before culturing overnight. Then compounds at indicated concentrations were added to the cells and incubated at 37°C for 24 h. […]
The luciferase activities and cell viabilities were detected by the FIREFLYGLO Luciferase Assay System and Cell Titer-Blue® Cell Viability Assay according to the manufacturer’s instructions. Firefly luciferase activities and cell viabilities were measured using Spectra Max M5e (Molecular Devices).

[1] = Tissue distribution (pharmacokinetic study); type: in vivo, mouse; conditions: ICR mice, single oral 20 mg/kg
Method: Male ICR mice (6–8 weeks old, 18–22 g, Shanghai Lingchang BioTech Co., Ltd., China) were used in the pharmacokinetic study. The mice were administered with a single dose of cyclopeptide DC646 in 5% DMSO and 95% hydroxypropyl methylcellulose solution (0.5% hydroxypropyl methylcellulose in deionized water in weight ratio) (volume ratio) by oral gavage (20 mg/kg). Before the test, the mice were fasted for 12 h and were fed regularly 2 h after administration. Subsequently, 50 μL of blood was collected from the portal vein at 1, 4, 8, and 24 h in an EDTA-K2 nebulization tube. Samples were centrifuged at 12,000 rpm for 2 min to separate the plasma, which was then stored at −20°C to determine the drug concentration in the blood. After sacrifice, the livers and intestines were collected, washed with ice-cold saline, and stored at −20°C before compound measurement.

[2] = system: intestinal FXR-ceramide axis and GLP-1; test: HFD-fed mice, ileal FXR signaling, ceramides and serum GLP-1; type: in vivo, mouse; conditions: oral 10 and 30 mg/kg
Method: Mice were fasted for 6 h and gavaged with a single dose of 25 mg/kg sitagliptin, followed by 2 g/kg glucose 45 min later. Blood samples were collected 15 min after glucose administration, and GLP-1 was measured using active GLP-1 kits.
The intestine and liver were frozen in liquid nitrogen and stored at −80°C. RNA was extracted, and complementary DNA was synthesized from 1 μg total RNA. RT-qPCR was performed on a Bio-Rad CFX384 Touch detection system (Bio-Rad). The primer sequences for RT-qPCR are shown in Supplementary Table S5. RNA levels were analyzed by 2-^ΔΔCt, normalized to 18S ribosomal RNA and expressed as fold change relative to the control group.
For ileal lipidomics, samples were homogenized, extracted with chloroform, and prepared for analysis. Separation was achieved using an Acquity UPLC CSH C18 column, and analysis was conducted via liquid chromatography electrospray ionization tandem mass spectrometry (LC-ESI-MS/MS). Mobile phases were comprised with acetonitrile–water and isopropanol/acetonitrile solutions, both containing 10 mmol/L ammonium acetate and 0.1% formic acid.
Supplementary Figure S9 DC646 antagonizes intestinal FXR, thereby reducing ceramide production and inducing GLP-1 production. (a) Relative mRNA expression of ileal FXR signaling. (b) Ileal ceramide levels (the data are normalized and centralized). (c) Relative mRNA expression of ileal ceramide-synthesis related genes. (d) Serum GLP-1 levels. HFD-fed mice were gavaged with vehicle or 10 mg/kg or 30 mg/kg DC646. n = 8 in each group. Data are presented as the mean ± SEM and analyzed by one-way ANOVA with Dunnett’s post hoc test. ^*P < 0.05, ^**P < 0.01, and ^***P < 0.001, versus HFD + Vehicle group.

Q: For CC(C)C[C@@H]1NC(=O)[C@@H]2CN(CCO2)c2cccc3c2c(cn3[Si](C(C)C)(C(C)C)C(C)C)C[C@H](NS(=O)(=O)C(F)(F)F)C(=O)OCCCCNC(=O)[C@H](CC(C)C)NC(=O)[C@@H]2CN(CCO2)c2cccc3c2c(cn3[Si](C(C)C)(C(C)C)C(C)C)C[C@H](NS(=O)(=O)C(F)(F)F)C(=O)OCCCCNC1=O [DC646, N,N'-((1^2R,1^4S,16^2R,16^4S,4R,13R,19R,28R)-13,28-diisobutyl-5,12,15,20,27,30-hexaoxo-2^1,17^1-bis(triisopropylsilyl)-2^1H,17^1H-6,21-dioxa-11,14,26,29-tetraaza-1(4,2),16(2,4)-dimorpholina-2,17(4,3)-diindolacyclotriacontaphane-4,19-diyl)bis(1,1,1-trifluoromethanesulfonamide)], which “Suppression of FXR activation (relative luciferase activity)” value (hFXR) is on record?
A: more than 70%

Q: And the Concentration in liver ([1]; 1 h)?
A: BQL^$

Q: What about the Concentration in serum ([1]; 1 h) of the same compound?
A: BQL^&

Q: What about the Concentration in liver ([1]; 4 h) of the same compound?
A: BQL

Q: What about the Concentration in serum ([1]; 4 h) of the same compound?
A: BQL

Q: And the Concentration in liver ([1]; 8 h)?
A: BQL

Q: And the Concentration in serum ([1]; 8 h)?
A: BQL

Q: And the Concentration in intestine ([1]; 24 h)?
A: BQL^$

Q: And the Concentration in liver ([1]; 24 h)?
A: BQL

Q: What about the Concentration in serum ([1]; 24 h) of the same compound?
A: BQL

Q: What about the tissue level at time at 1 h ([1]; male, mouse, intestine, 1 h, read-out: Concentration in intestine) of the same compound?
A: 6350 ng/g

Q: What about the tissue level at time at 4 h ([1]; male, mouse, intestine, 4 h, read-out: Concentration in intestine) of the same compound?
A: 435 ng/g

Q: What about the tissue level at time at 8 h ([1]; male, mouse, intestine, 8 h, read-out: Concentration in intestine) of the same compound?
A: 72 ng/g

Q: What about the “Ceramide levels in the ileum” value [2] of the same compound?
A: reduced

Q: And the “Serum GLP-1 levels” value [2]?
A: markedly increased

Q: What about the “FXR signaling in the ileum (mRNA levels of Shp and Fgf15)” value ([2]; dose-dependent) of the same compound?
A: repressed

— publication PMC11992618, “Development of cyclopeptide inhibitors specifically disrupting FXR–coactivator interaction in the intestine as a novel therapeutic strategy for MASH” (Life Metabolism, 2025)
